Experimental data: patent US7473682B2, “Angiogenic peptides and uses thereof” (Ramot at Tel Aviv University Ltd., priority 2003, dated 2009)

Legend:
ECs (HUVECs) = experiment: EC migration assay with peptide-presenting phages (Chemicon QCM 96-well Migration Assay); assay type: cell-based, human; conditions: 5 hours; for Migration of activated ECs (phages with ECs in migration chamber): 10^5 or 10^6 phages per well
Experimental: EC migration assay—EC migration was evaluated by the Chemicon QCM 96-well Migration Assay (Chemicon International, Temecula, Calif., USA) according to the manufacturer's instructions. Briefly, the kit's migration chamber comprises an insert membrane with 8 μm pores and a feeder tray containing the peptides as chemoattractants. Cell migration was evaluated by placing the cells in the migration chamber and following their migration to the bottom of the membrane.
For the migration/chemoattractant assay, ECs from passage 3 were incubated for 24 hours on gelatin-coated plates in the presence of the M199 SFM. Following trypsinization, 2×10^4 ECs were incubated for 5 hours in each of the 96 wells of the migration chamber. The peptide-presenting phages (10^5 or 10^6) were added to the feeder tray to chemoattractant the cells without being in physical contact with the cells. Cells which reached the bottom of the membrane (i.e., migratory cells) were dissociated from the membrane following the incubation with a cell detachment buffer. The migratory cells were subsequently lysed and detected by the molecular probe CyQuant GR dye which exerts green fluorescent enhancement when bound to cellular nucleic acid.
For activation migration assays, 10^5 or 10^6 peptide-presenting phages were incubated (for 5 hours) with ECs in the migration chamber. NO phages (unmodified M13 phages) served as negative control in both migration assays. Results were determined by a fluorescent ELISA reader at 480/520 nm (Fluostar BMG Lab Teck) and are presented in net values from which the control values were subtracted.

[1] = tested on: dermal microvascular endothelial cells (MVECs); experiment: Proliferation of dermal microvascular endothelial cells (MVECs) in the presence of synthetic peptides; assay type: cell-based; conditions: for Increase of MVECs proliferation response / [^3H]-Thymidine uptake in MVECs: normoxia; for [^3H]-Thymidine uptake in MVECs: 0.1-100 ng/ml, 24 hours
Experimental: Proliferation of dermal microvascular endothelial cells (MVECs) in the presence of synthetic peptides—MVECs were incubated with synthetic peptides (LT, SP, and YR) as described above for HUVECs (ECs), except that the MVECs were seeded in EBM-MV medium containing supplements (Cambrex BioWhittaker Cell Biology Products) and MVECs from passage 4 (rather than 3) were used for proliferation experiments.
(§1) Synthetic peptides induced proliferation or migration after and under hypoxia treatment—Cell proliferation or migration assays were performed as described in Example 3, hereinabove, except that cells were divided to 3 groups: control cells, cells after exposure to hypoxia conditions or cells proliferating under hypoxia conditions. For cell proliferation assays, ECs were incubated with QF, LT and SP and MVECs were incubated with LT, SP, and YR. For cell migration assays, ECs were incubated with EBM-2 and MVECs were incubated with EBM-MV media.

VEGF-C = experiment: Real time PCR gene expression in MVECs, VEGF-C; assay type: cell-based; design: key: increased (+); non-increased (−); conditions: 1 ng/ml peptide
Experimental: (§2) Real Time PCR—MVECs from passage 3 were incubated for 24 hours in EBM-MV supplement-free medium (starving media). Following starvation, 1 ng/ml of synthetic peptides LT, QF, SP, TR, YR, and VL and 10 ng/ml of VEGF were added to the plates. Following 1.5 or 6 hours of incubation, total RNA was extracted using TRIsol reagent (Invitrogen Life Technologies, Carlsbad Calif., USA) and 0.8 μg of the extracted RNA was used as a template for reverse transcription (Invitrogen) using random primers (SuperScript III First-Strand Synthesis System for RT-PCR (hvitrogen, Carlsbad Calif., USA) according to the manufacturer's instructions. Resulting cDNAs were subjected to real time PCR amplification using the ABI prism 7000 Sequence Detection System (Applied Biosystems, Foster City, Calif., USA). Oligonucleotide primers were designed using Primer Express Software (Applied Biosystems, Foster City, Calif., USA) according the translated region of VEGF-A (Accession No:NM_003376), VEGF-C (Accession No:NM_005429), KDR (Accession No:NM_002253), FLT-1 (Accession No:NM_002019), HIF-α (Accession No:HSU22431), and GAPDH (Accession No:NM_002046) and are listed in Table 6, hereinbelow. Briefly, a reaction mixture of 20 μl consisting of DDW, oligonucleotide primers (500 nM), cDNA (3 μl), and SYBR Green PCR master kit (Applied Biosystems, Foster City, Calif., USA) was subjected to an amplification program of 15 seconds at 95° C., and 60 seconds at 60° C. for 40 cycles. Results were analyzed using the Sequence Detector Software Version 1 (Applied Biosystenis).
(§3) Peptides effect on gene expression in MVECs—The effect of the synthetic peptides on the expression in MVECs of selected genes (VEGF-A, VEGF-C, KDR, FLT-1 and HIF-1α) related to the VEGF pathway (a major pathway that participated in angiogenic process) was tested. Synthetic peptides were added at 1 ng/ml for 1.5 and 6 hours. After incubation with peptide, RNA was extracted from MVECs and Real Time PCR was performed. Gene expression was calculated as peptide/control (cells without peptide treatment) ratio.

HIF-1α = experiment: Real time PCR gene expression in MVECs, HIF-1α; assay type: cell-based; design: key: increased (+); non-increased (−); conditions: 1 ng/ml peptide
Experimental: as §2, §3

HUVECs (ECs) = experiment: EC (HUVEC) migration assay with synthetic peptides; assay type: cell-based, human; conditions: 5, 10, 20 and 50 ng/ml, 5 hours
Experimental: Migration assays in the presence of synthetic peptides—EC migration was evaluated as described in Example 2, hereinabove. Following typsinization, ECs (25×10^3) were incubated in migration chambers. For the chemoattactant migration assay, synthetic peptides were added to the feeder tray at 5, 10, 20, and 50 ng/ml and incubated with the cells for 5 or 15 hours. For migration activation assays, synthetic peptides at 0.1, 1, and 10 ng/ml were incubated with the cells in the migration chamber for 5 or 15 hours.
as §1

MVECs = experiment: Tube formation assay, MVECs; assay type: cell-based; conditions: for MVEC tube formation compared to untreated cells: normoxic conditions, 10 ng/ml, matrigel
Experimental: Tube formation assay—ECs from passage 3 or MVECs from passage 4 were harvested with trypsin and incubated for 24 hours in SFM. Twenty-four—well plates were pre-coated with 250 μl of Cultrex Basement Membrane Extract with reduced growth factors (R&D Systems, Minneapolis, Minn., USA). Five hundred microliters of medium containing 10^6 cells were transferred to the coated wells. Synthetic peptides, FGF, YR, QF, or VL were added to ECs, and VEGF, YR, QF, or VL were added to MVECs at 10 ng/ml. Plates were incubated for 24 hours at 37° C. in the presence of 5% CO2. HUVECs and MVECs were photographed under a light microscope at 20 hours and 8 hours, respectively.
Tube formation assay after and under hypoxia treatment—Tube formation assay was performed as described in Example 3, hereinabove, except that the cells were divided to 3 groups: control cells, cells after exposure to hypoxia conditions, and cells on matrigel basement that form tubes under hypoxia treatment.

Row | Sequence | Migration of activated ECs (phages with ECs in migration chamber) (ECs (HUVECs)) | EC migration, phages as chemoattractants on feeder tray (ECs (HUVECs); 10^6 phages per well) | [^3H]-Thymidine uptake / proliferation of MVECs after and under hypoxia [1] | Increase of MVECs proliferation after hypoxia ([1]; 1 ng/ml) [fold] | Increase of MVECs proliferation response ([1]; 1 ng/ml) [fold] | [^3H]-Thymidine uptake in MVECs [1] | Increase of MVECs proliferation under hypoxia ([1]; 10 ng/ml) [fold] | VEGF-C Expression after 1.5 hours (VEGF-C) | VEGF-C Expression after 6 hours (VEGF-C) | HIF Expression after 1.5 hours (HIF-1α) | HIF Expression after 6 hours (HIF-1α) | EC migration, peptides as chemoattractants in feeder tray (HUVECs (ECs)) | MVEC tube formation compared to untreated cells (MVECs) | Increase of MVECs proliferation after hypoxia ([1]; 10 ng/ml) [fold] | Increase of MVECs proliferation under hypoxia ([1]; 1 ng/ml) [fold] | MVEC tube formation under hypoxia (MVECs; under hypoxia conditions, 18 hours) | EC migration, phages as chemoattractants on feeder tray (ECs (HUVECs); 10^5 phages per well)
1 | LLADTTHHRPWT (Phage displayed peptide) [LT] | induced migration | induce migration as chemoattractants | significant dose-dependent increase | 1.7 | 1.8 | significant increase | 1.7 | + | + | − | − | dose-dependent induced migration | did not induce tube formation |  |  |  | 
2 | QPWLEQAYYSTF (Phage displayed peptide) [QF] | induced migration | induce migration as chemoattractants | did not show increase proliferation |  |  |  |  | + | + | + | − |  | significant increase in tube formation |  |  |  | 
3 | SAHGTSTGVPWP (Phage displayed peptide) |  | induce migration as chemoattractants | significant dose-dependent increase |  | 1.4 | significant increase |  | + | + |  |  | dose-dependent induced migration | did not induce tube formation | 1.5 | 1.9 | effective only in tube formation under hypoxia conditions | 
4 | TLPWLEESYWRP (Phage displayed peptide) [TR] |  | induce migration as chemoattractants |  |  |  |  |  | + | + | + | + | smaller effect of induced migration |  |  |  |  | 
5 | VPWMEPAYQRFL (Phage displayed peptide) [VL] |  |  |  |  |  |  |  | + | + | + | + | smaller effect of induced migration | significant increase in tube formation |  |  |  | 
6 | YPHIDSLGHWRR (Phage displayed peptide) [YR] |  |  |  |  | 1.7 | significant increase |  |  |  | − |  |  | significant increase in tube formation |  |  |  | induce migration as chemoattractants
